Results on 14 molecules are retold here after patent US20120289432A1, “PI3K MODULATORS, RHO KINASE MODULATORS AND METHODS OF IDENTIFYING AND USING SAME” (Corning Incorporated, priority 2009, published 2012).

The subject of one test is A549 cells. Description: DMR modulation of marker-induced responses (two-step assay) in A549 cells. It is filed as cell-based, human. As to conditions: for modulation of the pinacidil response in A549 cells: compound pretreatment ~1 hr (10 micromolar), then pinacidil 10 micromolar; for modulation of the forskolin response (P-DMR) in A549 cells / modulation of the histamine response (early and late P-DMR) in A549 cells: inhibitor 10 micromolar; for modulation of the forskolin response (P-DMR) in A549 cells: forskolin 16 micromolar; for modulation of the histamine response (early and late P-DMR) in A549 cells: histamine 10 micromolar; for modulation of the late P-DMR event of the histamine response in A549 cells: ~30 min after histamine stimulation. As for the experimental part:
(§1) The index was generated after normalizing each marker-induced DMR signal in the presence of the inhibitor to its corresponding signal in the absence of the inhibitor. The percentage of modulation for each marker by the inhibitor was plotted as a function of the marker. As shown from left to right in a sequential order, the DMR events used for the basis of the modulation percentage calculation are: the N-DMR (50 min after stimulation) for pinacidil in A549, the P-DMR (50 min after stimulation) for forskolin in A549, the early P-DMR event (˜10 min after histamine stimulation) and the late P-DMR event (˜30 min after histamine stimulation) for histamine in A549, and the early P-DMR event (˜5 min after EGF stimulation) and the subsequent N-DMR event (˜30 min after EGF stimulation) for EGF in A431 cells. In all cases, the amplitudes of respective DMR events were used as the basis to calculate the percentages of modulation by the PI3K inhibitors. The same procedure was used to generate FIGS. 8 to 14.
(§2) Cells were typically grown using ˜1 to 2×10^4 cells per well at passage 3 to 15 suspended in 50 μl of the corresponding culture medium in the biosensor microplate, and were cultured at 37° C. under air/5% CO2 for ˜1 day. Except for A431 which underwent one day culture followed by one starvation in serum free medium, all other cells were directly assayed without starvation. The confluency for all cells at the time of assays was ˜95% to 100%.
(§3) For biosensor cellular assays, molecule solutions were made by diluting the stored concentrated solutions with the HBSS (1× Hanks balanced salt solution, plus 20 mM Hepes, pH 7.1), and transferred into a 384 well polypropylene molecule storage plate to prepare a molecule source plate. Both molecule and marker source plates were made separately when a two-step assay was performed. In parallel, the cells were washed twice with the HBSS and maintained in 30 μl of the HBSS to prepare a cell assay plate. Both the cell assay plate and the molecule and marker source plate(s) were then incubated in the hotel of the reader system. After ˜1 hr of incubation the baseline wavelengths of all biosensors in the cell assay microplate were recorded and normalized to zero. Afterwards, a 2 to 10 minute continuous recording was carried out to establish a baseline, and to ensure that the cells reached a steady state. Cellular responses were then triggered by pipetting 10 μl of the marker solutions into the cell assay plate using the on-board liquid handler.
(§4) To study the influence of molecules on a marker-induced response, a second stimulation with the marker at a fixed dose (typically at EC80 or EC100) was applied. The resonant wavelengths of all biosensors in the microplate were normalized again to establish a second baseline, right before the second stimulation. The two stimulations were usually separated by ˜1 hr.
(§5) All studies were carried out at a controlled temperature (28° C.). At least two independent sets of experiments, each with at least three replicates, were performed.

The next test relates to A431 cells. Briefly: DMR modulation of the EGF-induced response in quiescent A431 cells. The test is classed as cell-based, human. As to conditions: inhibitor 10 micromolar, EGF 32 nM. As to the method: as §1, §2, §3, §4, §5

For `O=C1NC(=O)C(=Cc2ccc3nccnc3c2)S1` [PI3Kγ inhibitor, 5-quinoxalin-6-ylmethylene-thiazolindine-2,4-dione], in the test with A549 cells, the “modulation of the pinacidil response in A549 cells” value is on record as “little or not modulation”; the “modulation of the forskolin response (P-DMR) in A549 cells” value (from here on “modulation … (P-DMR) in A549 cells”) is given as “significant potentiation”; the “modulation of the histamine response (early and late P-DMR) in A549 cells” value is “significant potentiation”; the “modulation of the late P-DMR event of the histamine response in A549 cells” value is listed as “moderate potentiation”. For the same molecule, the “modulation of the P-DMR event of the EGF response in A431 cells” value with A431 cells is reported as “small attenuation”.

As to `CC1CNCCN1S(=O)(=O)c1cccc2cnccc12` (stereo not shown) [H-7], the “modulation of the pinacidil response in A549 cells” value with A549 cells is on record as “complete or significant attenuation”.

As to `Cc1cc(C(C)Nc2ccccc2)c2nc(N3CCOCC3)cc(=O)n2c1` (racemic) [PI3Kβ inhibitor II, (+/−)-7-Methyl-2-(morpholin-4-yl)-9-(1-phenylaminoethyl)-pyridol[1,2-a]-pyrimidin-4-one], the “modulation of the late P-DMR event of the histamine response in A549 cells” value in the test on A549 cells is reported as “slightly suppression”. In addition, the “modulation of the P-DMR event of the EGF response in A431 cells” value in the test on A431 cells is reported as “significantly attenuated”.

Turning to `O=c1cc(N2CCOCC2)oc2c1ccc1ccccc12` [DNA-PK inhibitor II, 2-(Morpholin-4-yl)-benzo[h]chromen-4-one], in the test on A549 cells, the “modulation of the pinacidil response in A549 cells” value is on record as “little or not modulation”; the “modulation … (P-DMR) in A549 cells” value is “significant potentiation”; the “modulation of the histamine response (early and late P-DMR) in A549 cells” value is listed as “significant potentiation”. The “modulation of the P-DMR event of the EGF response in A431 cells” value in the test on A431 cells is recorded as “small attenuation”.

Take `O=S(=O)(c1cccc2cnccc12)N1CCCNCC1` [HA-1077]: the “modulation of the pinacidil response in A549 cells” value in the test with A549 cells is given as “complete or significant attenuation”.

For `NC(N)=NCCNS(=O)(=O)c1cccc2cnccc12` [HA-1004], the “modulation of the pinacidil response in A549 cells” value with A549 cells is “complete or significant attenuation”.

On to `CC(=O)c1ccc(N2CCOCC2)cc1O` [DNA-PK inhibitor III, 1-(2-Hydroxy-4-morpholin-4-yl-phenyl)ethanone], for which, in the test with A549 cells, the “modulation of the pinacidil response in A549 cells” value was “little or not modulation”; the “modulation … (P-DMR) in A549 cells” value was “significant potentiation”; the “modulation of the histamine response (early and late P-DMR) in A549 cells” value was “significant potentiation”. For the same molecule, the “modulation of the P-DMR event of the EGF response in A431 cells” value in the test on A431 cells is listed as “small attenuation”.

`O=S(=O)(NCCNC/C=C/c1ccc(Br)cc1)c1cccc2cnccc12` [H-89]: the “modulation of the pinacidil response in A549 cells” value with A549 cells is given as “complete or significant attenuation”.

On to `c1ccc2c(-c3ccncc3)c[nH]c2c1` [Rho kinase inhibitor III Rockout], for which the “modulation of the pinacidil response in A549 cells” value with A549 cells is given as “complete or significant attenuation”.

Consider `NCCNS(=O)(=O)c1cccc2cnccc12` [H-9], for which the “modulation of the pinacidil response in A549 cells” value in the test on A549 cells is given as “complete or significant attenuation”.

On to Rho kinase inhibitor IV, for which the “modulation of the pinacidil response in A549 cells” value in the test on A549 cells is listed as “complete or significant attenuation”.

As to `Oc1ccc(C=Cc2cc(O)cc(O)c2)cc1` [resveratrol], in the test with A549 cells, the “modulation of the pinacidil response in A549 cells” value was “little or not modulation”; the “modulation … (P-DMR) in A549 cells” value is reported as “significant potentiation”; the “modulation of the histamine response (early and late P-DMR) in A549 cells” value is “significant potentiation”. Also, the “modulation of the P-DMR event of the EGF response in A431 cells” value in the test on A431 cells is “small attenuation”.

As to `Oc1cccc(-c2nc(N3CCOCC3)c3oc4ncccc4c3n2)c1` [PI-103], in the test with A549 cells, the “modulation of the pinacidil response in A549 cells” value is given as “little or not modulation”; the “modulation … (P-DMR) in A549 cells” value is listed as “significant potentiation”; the “modulation of the histamine response (early and late P-DMR) in A549 cells” value is “significant potentiation”. Besides, the “modulation of the P-DMR event of the EGF response in A431 cells” value in the test with A431 cells is reported as “small attenuation”.

As to `CNCCNS(=O)(=O)c1cccc2cnccc12` [H-8], in the test with A549 cells, the “modulation of the pinacidil response in A549 cells” value is recorded as “complete or significant attenuation”.
